Experimental data published in US20060084134A1, “Direct ethanol metabolite ethyl sulfate as an useful diagnostic and therapeutic marker of alcohol consumption” (priority 2004, published 2006).
Where a name gives a salt, the structure may show the parent alone. Read-outs that look alike come from different tables or passages of the source. One block for each compound: values may come before it.

Key:
[1] = human, in vivo
Description: (§1) Characteristic tandem-mass spectrometric fragmention of EtS, purchased from ABCR Karlsruhe/Germany, was obtained when analyzing EtS solution in product ion scan mode: deprotonated molecule (M-H)^−, m/z 125 and fragment ions m/z 80 and 97. An LC-MS/MS-method, which has previously been published for the determination of EtG (Weinmann 2004), was modified by inclusion of the transitions for EtS. Subsequent LC/MS/MS-analysis was performed in MRM-mode (m/z 125 to m/z 97 and m/z 80 and by monitoring the unfragmented precursor ion (m/z 125) of EtS (ion chromatograms of diluted reference solution see FIG. 1). A gradient elution with increasing acetonitrile concentration of the eluting solvent was used—all other chromatographic equipment was as described in the article by Weinmann et al. (Weinmann 2004).
(§2) Sample preparation was done by addition of D5-EtG and dilution of the urine sample prior to injection in the LC-MS/MS system. Quantification was performed using D5-EtG as internal standard.

[2] = cited from earlier work
[3] = cited from earlier work; remark: listed apart in the source
[4] = Controlled drinking experiment with a healthy volunteer: urinary excretion profile by LC-MS/MS; conditions: for UAC (urine alcohol concentration): 540 ml wine, 49 g ethanol
Description: as §1, §2

Compound: phosphatidylethanol [PEth]
time detectable in whole blood after cessation of ethanol intake ([2]; whole blood): > 2 weeks

Compound: fatty acid ethyl esters [FAEEs]
time detectable in hair [2]: several months
time detectable in hair ([2]; listed as FAEE): months
time detectable in serum and erythrocytes after drinking ([2]; serum and erythrocytes): up to 24 h
time detectable in serum after cessation of ethanol intake ([2]; serum): up to 24 h
stability in blood samples (in words) ([3]; blood samples, continued enzyme activity): not stable

More lines, main results first:

detection in urine at the last time point [1]: positive
Compound: CCO[C@@H]1O[C@H](C(=O)O)[C@@H](O)[C@H](O)[C@H]1O [EtG, ethyl glucuronide]
time detectable following complete elimination of alcohol from the body ([2]; dose-dependently, after even minor amounts of alcohol like 10 grams): 4 days
time detectable in hair [2]: months
time detectable in urine after cessation of ethanol intake ([2]; urine): up to 5 days
water solubility (in words) [3]: water-soluble

time detectable in urine [1]: up to 36 hours
Compound: CCOS(=O)(=O)O [EtS, ethyl sulfate]

time since which urinary ethanol (UAC) had not been detectable ([4]; counted back from the 36 hours time point): 23 h
UAC (urine alcohol concentration) ([4]; 0 h:min after ethanol uptake): 0.003 g %
UAC (urine alcohol concentration) ([4]; 1:00 h:min after ethanol uptake): 0.022 g %
UAC (urine alcohol concentration) ([4]; 2:06 h:min after ethanol uptake): 0.078 g %
UAC (urine alcohol concentration) ([4]; 2:46 h:min after ethanol uptake): 0.082 g %
UAC (urine alcohol concentration) ([4]; 8:00 h:min after ethanol uptake): 0.046 g %
UAC (urine alcohol concentration) ([4]; 11:20 h:min after ethanol uptake): 0.003 g %
UAC (urine alcohol concentration) ([4]; 13:20 h:min after ethanol uptake): 0 g %
UAC (urine alcohol concentration) ([4]; 14:50 h:min after ethanol uptake): 0 g %
UAC (urine alcohol concentration) ([4]; 16:40 h:min after ethanol uptake): 0 g %
UAC (urine alcohol concentration) ([4]; 19:10 h:min after ethanol uptake): 0 g %
UAC (urine alcohol concentration) ([4]; 21:30 h:min after ethanol uptake): 0 g %
UAC (urine alcohol concentration) ([4]; 26:30 h:min after ethanol uptake): 0 g %
UAC (urine alcohol concentration) ([4]; 32:00 h:min after ethanol uptake): 0 g %
UAC (urine alcohol concentration) ([4]; 36:00 h:min after ethanol uptake): 0 g %
Compound: CCO [ethanol]
